Source: the NIST ThermoML archive (doi:10.1016/j.jct.2007.11.010)
± gives the expanded uncertainty stated by the source.

Experiment: xn = mol fraction of the nth substance listed
Settings: 101 kPa, Liquid

OCCN1CCOCC1 [4-morpholineethanol] + CC(C)O
mass density [kg/m3]
Settings | 293.15 K | 298.15 K | 303.15 K | 313.15 K | 323.15 K
x1 = 0.0543 | 810.11 ± 0.88 | 806.22 ± 0.89 | 801.63 ± 0.9 | 792.98 ± 0.93 | 784.44 ± 0.96
x1 = 0.1127 | 835.5 ± 0.8 | 831.48 ± 0.82 | 826.84 ± 0.83 | 818.19 ± 0.86 | 809.79 ± 0.88
x1 = 0.1873 | 865.79 ± 0.72 | 861.61 ± 0.74 | 856.92 ± 0.75 | 848.29 ± 0.78 | 840.07 ± 0.8
x1 = 0.2468 | 888.39 ± 0.66 | 884.1 ± 0.7 | 879.38 ± 0.69 | 870.77 ± 0.72 | 862.71 ± 0.74
x1 = 0.2874 | 903.13 ± 0.63 | 898.77 ± 0.64 | 894.03 ± 0.65 | 885.45 ± 0.68 | 877.5 ± 0.7
x1 = 0.3248 | 916.03 ± 0.59 | 911.6 ± 0.6 | 906.84 ± 0.62 | 898.29 ± 0.64 | 890.46 ± 0.67
x1 = 0.3873 | 936.59 ± 0.54 | 932.06 ± 0.56 | 927.29 ± 0.57 | 918.79 ± 0.6 | 911.14 ± 0.62
x1 = 0.4267 | 948.75 ± 0.51 | 944.16 ± 0.53 | 939.38 ± 0.54 | 930.92 ± 0.57 | 923.4 ± 0.6
x1 = 0.4882 | 967 ± 1 | 962.32 ± 0.49 | 957.53 ± 0.5 | 949.14 ± 0.53 | 941.81 ± 0.55
x1 = 0.5237 | 976.91 ± 0.45 | 972.17 ± 0.46 | 967.38 ± 0.47 | 959.03 ± 0.5 | 951.82 ± 0.52
x1 = 0.5894 | 994.19 ± 0.4 | 989.37 ± 0.42 | 984.57 ± 0.43 | 976.32 ± 0.45 | 969.32 ± 0.47
x1 = 0.6422 | 1007.31 ± 0.41 | 1002.43 ± 0.4 | 997.63 ± 0.4 | 989.46 ± 0.42 | 982.63 ± 0.44
x1 = 0.6899 | 1018.36 ± 0.46 | 1013.43 ± 0.44 | 1008.64 ± 0.42 | 1000.53 ± 0.4 | 993.87 ± 0.41
x1 = 0.7439 | 1030.26 ± 0.51 | 1025.27 ± 0.49 | 1020.49 ± 0.47 | 1012.47 ± 0.44 | 1005.99 ± 0.42
x1 = 0.7855 | 1038.88 ± 0.54 | 1033.86 ± 0.52 | 1029.09 ± 0.51 | 1021.13 ± 0.48 | 1014.79 ± 0.46
x1 = 0.8238 | 1046.42 ± 0.57 | 1041.36 ± 0.56 | 1036.59 ± 0.54 | 1028.7 ± 0.5 | 1022.49 ± 0.49
x1 = 0.8841 | 1057.54 ± 0.62 | 1052.43 ± 0.61 | 1047.69 ± 0.59 | 1039.9 ± 0.6 | 1033.9 ± 0.5
x1 = 0.9247 | 1064.51 ± 0.66 | 1059.37 ± 0.64 | 1054.64 ± 0.62 | 1046.93 ± 0.6 | 1041.06 ± 0.57
x1 = 0.9544 | 1069.21 ± 0.68 | 1064.05 ± 0.66 | 1059.33 ± 0.65 | 1051.68 ± 0.62 | 1045.92 ± 0.6
x1 = 0.9844 | 1074.11 ± 0.7 | 1068.93 ± 0.69 | 1064.23 ± 0.67 | 1056.62 ± 0.64 | 1050.96 ± 0.62
